Data from patent US12371454B2, “Cyclic peptide compound having Kras inhibitory action” (priority 2019, dated 2025).
Positions of bridges follow the written chain, without caps; N, C: chain ends. Non-standard residues stand in square brackets, D forms with d. Residues, ends and D or L forms follow the SMILES beside them. *: point of attachment. hPhe(3-Cl-4-CF3) = N[C@@H](CCc1ccc(C(F)(F)F)c(Cl)c1)C(=O)O; hPhe(3-F,4-CF3) = N[C@@H](CCc1ccc(C(F)(F)F)c(F)c1)C(=O)O; hPhe(4-CF3) = N[C@@H](CCc1ccc(C(F)(F)F)cc1)C(=O)O; NMePhe(4-Cl) = CN[C@@H](Cc1ccc(Cl)cc1)C(=O)O; NMePhe(4-Me) = CN[C@@H](Cc1ccc(C)cc1)C(=O)O; Oic = O=C(O)[C@@H]1C[C@@H]2CCCC[C@@H]2N1; NMeGly(cPent) = CN[C@H](C(=O)O)C1CCCC1; Phe(3-I) = N[C@@H](Cc1cccc(I)c1)C(=O)O; NMeCha = CN[C@@H](CC1CCCCC1)C(=O)O; NMehLeu = CN[C@@H](CCC(C)C)C(=O)O; NMeChg = CN[C@H](C(=O)O)C1CCCCC1; NMeF = CN[C@@H](Cc1ccccc1)C(=O)O; NMeD = CN[C@@H](CC(=O)O)C(=O)O; NMeL = CN[C@@H](CC(C)C)C(=O)O; Cba = N[C@@H](CC1CCC1)C(=O)O; NMeV = CN[C@H](C(=O)O)C(C)C; d(β3hA) = C[C@@H](N)CC(=O)O; N(iPr)Gly = CC(C)NCC(=O)O; Pip = O=C(O)[C@@H]1CCCCN1; NMeA = CN[C@@H](C)C(=O)O; NMeAib = CNC(C)(C)C(=O)O; Piperidide = C1CCN(*)CC1; Pyrrolidide = C1CCN(*)C1; Ac5c = NC1(C(=O)O)CCCC1; Aze = O=C(O)[C@@H]1CCN1; Sar = CNCC(=O)O; OAll = C=CCO*

Each compound was assayed against T1, Kras and SOS1 (biotin-tagged human Kras loaded with GDP, His-tagged human SOS1) (Homo sapiens, UniProt P01116, G12D) (assay: Protein-protein interaction inhibition between Kras and SOS1 (KrasGl2D-SOS PPI) using AlphaScreen). Details: not given.
T1 construct: made in house; host or cells: E. coli (stated for Kras only)
T1 sequence (P01116 1-188 isoform P01116-2 G12D): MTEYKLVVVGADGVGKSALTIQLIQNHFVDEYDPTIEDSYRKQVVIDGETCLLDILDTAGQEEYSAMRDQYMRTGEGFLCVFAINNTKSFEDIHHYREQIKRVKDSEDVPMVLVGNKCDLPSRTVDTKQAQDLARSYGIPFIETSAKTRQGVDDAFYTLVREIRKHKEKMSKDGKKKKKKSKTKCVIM
Format: binding
Procedure, shortened: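 Kras was produced in E. coli, purified, then loaded with GDP. It was paired via streptavidin acceptor beads with His-SOS1 held on nickel donor beads, and proximity signal at 520-620 nm was read after 680 nm illumination.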
Compound `CC[C@H](C)[C@@H]1NC(=O)[C@H](CC(C)C)N(C)C(=O)C[C@@H](C(=O)N2CCCCC2)N(C)C(=O)[C@H](C2CCCCC2)N(C)C(=O)C2(CCCC2)NC(=O)[C@@H]2C[C@@H]3CCCC[C@@H]3N2C(=O)[C@H](CCc2ccc(C(F)(F)F)c(Cl)c2)NC(=O)CN(C)C(=O)[C@H](CC2CCCCC2)N(C)C(=O)CN(C)C(=O)CN(C)C1=O` [Compound 297] ([NMeL]I[Sar][Sar][NMeCha][Sar][hPhe(3-Cl-4-CF3)][Oic][Ac5c][NMeChg][NMeD]-Piperidide; lactam N-11) has an IC50 of 49 nM.

Same assay, conditions: AlphaScreen; biotin-tagged human Kras loaded with GDP, His-tagged human SOS1; read-out: KRAS G12D-SOS PPI IC50
`CC(C)C[C@H]1C(=O)N[C@@H](CC2CCC2)C(=O)N(C)CC(=O)N(C)CC(=O)N(C)[C@@H](CC2CCCCC2)C(=O)N(C)CC(=O)N[C@@H](CCc2ccc(C(F)(F)F)c(Cl)c2)C(=O)N2CCC[C@H]2C(=O)NC2(CCCC2)C(=O)N(C)[C@@H](C(C)C)C(=O)N[C@H](C)CC(=O)N1C` [Compound 290] (cyclo([Ac5c][NMeV][d(β3hA)][NMeL][Cba][Sar][Sar][NMeCha][Sar][hPhe(3-Cl-4-CF3)]P)) showed an IC50 of 160 nM. For `CC[C@H](C)[C@@H]1NC(=O)[C@H](C)N(C)C(=O)C[C@@H](C(=O)N2CCCCC2)N(C)C(=O)[C@H](C(C)C)N(C)C(=O)C2(CCCC2)NC(=O)[C@@H]2CCCN2C(=O)[C@H](CCc2ccc(C(F)(F)F)c(Cl)c2)NC(=O)[C@H]2CCCN2C(=O)[C@H](CC2CCCCC2)N(C)C(=O)[C@@H]2CCN2C(=O)[C@H](C)N(C)C1=O` [Compound 293] ([NMeA]I[NMeA][Aze][NMeCha][dP][hPhe(3-Cl-4-CF3)]P[Ac5c][NMeV][NMeD]-Piperidide; lactam N-11), the IC50 was 120 nM. `CC[C@H](C)[C@@H]1NC(=O)[C@H](CC(C)C)N(C)C(=O)C[C@@H](C(=O)N2CCCCC2)N(C)C(=O)[C@H](CC(C)C)NC(=O)C(C)(C)N(C)C(=O)[C@H](CC(C)C)NC(=O)[C@H](Cc2cccc(I)c2)NC(=O)CN(C)C(=O)[C@H](Cc2ccc(Cl)cc2)N(C)C(=O)CN(C)C(=O)CN(C)C1=O` [Compound 295] ([NMeL]I[Sar][Sar][NMePhe(4-Cl)][Sar][Phe(3-I)]L[NMeAib]L[NMeD]-Piperidide; lactam N-11) was tested, and the IC50 was 68 nM. In the case of `CC[C@H](C)[C@@H]1NC(=O)[C@H](CC(C)C)N(C)C(=O)C[C@@H](C(=O)N2CCCCC2)NC(=O)[C@H](CC(C)C)N(C)C(=O)C2(CCCC2)NC(=O)[C@@H]2CCCN2C(=O)[C@H](CCc2ccc(C(F)(F)F)c(F)c2)NC(=O)CN(C)C(=O)[C@H](CC2CCCCC2)N(C)C(=O)CN(C)C(=O)CN(C)C1=O` [Compound 298] ([NMeL]I[Sar][Sar][NMeCha][Sar][hPhe(3-F,4-CF3)]P[Ac5c][NMeL]D-Piperidide; lactam N-11), the IC50 is reported as 21 nM. For `CC[C@H](C)[C@@H]1NC(=O)[C@H](C)N(C)C(=O)C[C@@H](C)NC(=O)[C@H](CC(C)C)N(C)C(=O)[C@H](Cc2ccccc2)N(C)C(=O)[C@@H]2CCCCN2C(=O)[C@H](CCc2ccc(C(F)(F)F)cc2)NC(=O)CN(C)C(=O)[C@H](Cc2ccc(Cl)cc2)N(C)C(=O)CN(C)C(=O)CN(C)C1=O` [Compound 299] (cyclo(I[Sar][Sar][NMePhe(4-Cl)][Sar][hPhe(4-CF3)][Pip][NMeF][NMeL][d(β3hA)][NMeA])), the IC50 was 130 nM. `CC[C@H](C)[C@@H]1NC(=O)[C@H](CCC(C)C)N(C)C(=O)C[C@@H](C(=O)N(C)C)N(C)C(=O)[C@H](C2CCCC2)N(C)C(=O)C2(CCCC2)NC(=O)[C@@H]2CCCN2C(=O)[C@H](CCc2ccc(C(F)(F)F)c(Cl)c2)NC(=O)CN(C)C(=O)[C@H](Cc2ccc(C)cc2)N(C)C(=O)[C@@H]2CCN2C(=O)[C@H](C)NC1=O` [Compound 303, (5S,8S,11S,15S,18S,23aS,29S,35S,37aS)-8-((S)-sec-butyl)-29-(3-chloro-4-(trifluoromethyl)phenethyl)-18-cyclopentyl-11-isopentyl-N,N,5,12,16,19,33,36-octamethyl-35-(4-methylbenzyl)-4,7,10,13,17,20,23,28,31,34,37-undecaoxotetratriacontahydro-2H,4H-spiro[azeto[2,1-u]pyrrolo[2,1-i][1,4,7,10,13,16,19,22,25,28,31]undecaazacyclotetratriacontine-21,1′-cyclopentane]-15-carboxamide] ([NMehLeu]IA[Aze][NMePhe(4-Me)][Sar][hPhe(3-Cl-4-CF3)]P[Ac5c][NMeGly(cPent)][NMeD]-NMe2; lactam N-11) showed an IC50 of 0.68 nM. Compound `CC[C@H](C)[C@@H]1NC(=O)[C@H](CC(C)C)N(C)C(=O)C[C@@H](C)NC(=O)[C@H](C(C)C)N(C)C(=O)C2(CCCC2)NC(=O)[C@@H]2CCCN2C(=O)[C@H](CCc2ccc(C(F)(F)F)c(Cl)c2)NC(=O)CN(C)C(=O)[C@H](CC2CCCCC2)N(C)C(=O)CN(C)C(=O)CN(C(C)C)C1=O` [Compound 305] (cyclo([Ac5c][NMeV][d(β3hA)][NMeL]I[N(iPr)Gly][Sar][NMeCha][Sar][hPhe(3-Cl-4-CF3)]P)) has an IC50 of 170 nM. Compound `C=CCOC(=O)CC[C@@H]1NC(=O)[C@H](CCc2ccc(C(F)(F)F)cc2)NC(=O)CN(C)C(=O)[C@H](Cc2ccc(Cl)cc2)N(C)C(=O)CN(C)C(=O)CN(C)C(=O)[C@H]([C@@H](C)CC)NC(=O)[C@H](C)N(C)C(=O)C[C@@H](C(=O)N2CCCC2)NC(=O)[C@H](CC(C)C)N(C)C(=O)[C@H](Cc2ccccc2)N(C)C1=O` [Compound 306] ([NMeA]I[Sar][Sar][NMePhe(4-Cl)][Sar][hPhe(4-CF3)]E(OAll)[NMeF][NMeL]D-Pyrrolidide; lactam N-11) has an IC50 of 44 nM.
